Data taken from paper PMC4147340, “Mode and specificity of binding of the small molecule GANT61 to GLI determines inhibition of GLI-DNA binding” (Oncotarget, 2014).

How the values were obtained:
GLI1 (ΔGLI-DM) = target: T1, GLI1 (ΔGLI-DM) (Homo sapiens, UniProt P08151, E250A/E298A); experiment: SPR, ΔGLI-DM immobilized on Ni-NTA chip, GANT61 […] as analyte; type: binding
T1 sequence (P08151 234-388 E250A/E298A limits assumed): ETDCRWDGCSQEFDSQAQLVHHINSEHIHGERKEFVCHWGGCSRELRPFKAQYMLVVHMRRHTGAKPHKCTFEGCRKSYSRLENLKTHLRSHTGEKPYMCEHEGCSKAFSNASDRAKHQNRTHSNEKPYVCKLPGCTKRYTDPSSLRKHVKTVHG

GLI1 = target: T2, GLI1 (Homo sapiens, UniProt P08151); experiment: SPR (Biacore […]), GLI1 immobilized on CM5 chip, GANT61 […] as analyte; type: binding
T2 construct: Full length GLI1 (OriGene)
T2 sequence (P08151 1-1106): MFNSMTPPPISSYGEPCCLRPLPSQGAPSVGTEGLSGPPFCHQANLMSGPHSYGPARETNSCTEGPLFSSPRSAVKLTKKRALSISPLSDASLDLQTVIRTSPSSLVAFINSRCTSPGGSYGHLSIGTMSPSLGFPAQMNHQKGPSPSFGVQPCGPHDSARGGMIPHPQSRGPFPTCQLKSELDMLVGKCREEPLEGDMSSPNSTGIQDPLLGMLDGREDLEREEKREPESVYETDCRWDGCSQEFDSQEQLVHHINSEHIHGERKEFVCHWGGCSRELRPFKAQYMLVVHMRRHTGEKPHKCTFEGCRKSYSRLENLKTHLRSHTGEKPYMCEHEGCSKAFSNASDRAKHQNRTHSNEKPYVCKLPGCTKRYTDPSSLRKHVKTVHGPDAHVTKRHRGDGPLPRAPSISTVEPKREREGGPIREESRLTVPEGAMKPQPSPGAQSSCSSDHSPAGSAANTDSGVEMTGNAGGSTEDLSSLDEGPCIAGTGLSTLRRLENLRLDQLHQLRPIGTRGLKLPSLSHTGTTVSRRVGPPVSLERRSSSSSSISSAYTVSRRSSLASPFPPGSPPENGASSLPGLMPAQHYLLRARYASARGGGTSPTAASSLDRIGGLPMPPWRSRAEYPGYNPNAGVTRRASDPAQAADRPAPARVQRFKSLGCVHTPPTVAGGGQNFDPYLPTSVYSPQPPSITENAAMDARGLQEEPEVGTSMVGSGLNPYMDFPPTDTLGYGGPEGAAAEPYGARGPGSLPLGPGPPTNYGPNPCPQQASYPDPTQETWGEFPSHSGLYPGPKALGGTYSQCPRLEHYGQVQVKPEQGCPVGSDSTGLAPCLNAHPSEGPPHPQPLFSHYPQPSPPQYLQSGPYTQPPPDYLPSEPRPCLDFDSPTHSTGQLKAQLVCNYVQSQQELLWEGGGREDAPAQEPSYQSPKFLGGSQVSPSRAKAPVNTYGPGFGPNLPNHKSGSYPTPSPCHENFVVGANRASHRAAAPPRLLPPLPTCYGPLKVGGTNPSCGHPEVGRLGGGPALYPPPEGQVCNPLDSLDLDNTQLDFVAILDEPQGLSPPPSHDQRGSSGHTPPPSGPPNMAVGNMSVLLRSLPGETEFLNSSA

[1] = test system: GLI1 (full length, GLI1-WT); experiment: SPR; settings: Biacore 3000, HBS-P buffer, 20 ul/min, 3 min association, 5 min dissociation; pH, salt and temperature not stated
[2] = test system: GLI1 (full length, GLI1-WT); experiment: SPR inhibition; settings: Biacore 3000, HBS-P buffer, 20 ul/min, 3 min association, 5 min dissociation; pH, salt and temperature not stated

Molecule	Kd (GLI1 (ΔGLI-DM)) [µM]	Kd (GLI1) [µM]	Kd [1] [µM]	K half [2] [µM]
CN(C)c1ccccc1CN1CCCN(Cc2ccccc2N(C)C)C1c1ccncc1 [GANT61]	26.1	7.5	–	–
biotinylated GLI1 DNA-binding sequence (21-mer)	–	–	5.5	3.2
